Measurements published in ChEMBL document CHEMBL2380238, “Synthesis, spectral and antimicrobial evaluation of some novel 1-methyl-3-alkyl-2,6-diphenylpiperidin-4-one oxime carbonates” (2013).
≈ marks a conversion by molar mass, not a printed value. Calls of active or inactive are those of the source. The calls are words filed in the database; no cut-off is given here.

Legend:
Assay type in all cases: functional
Aspergillus flavus [1] = assay: Antifungal activity against Aspergillus flavus
Aspergillus flavus [2] = assay: Antifungal activity against Aspergillus flavus after 72 to 96 hrs by broth dilution method
Aspergillus niger [3] = assay: Antifungal activity against Aspergillus niger
Fusarium [4] = assay: Antifungal activity against Fusarium after 72 to 96 hrs by broth dilution method
Fusarium [5] = assay: Antifungal activity against Fusarium
Aspergillus niger [6] = assay: Antifungal activity against Aspergillus niger after 72 to 96 hrs by broth dilution method
Rhizopus [7] = assay: Antifungal activity against Rhizopus after 72 to 96 hrs by broth dilution method
Rhizopus [8] = assay: Antifungal activity against Rhizopus
Penicillium [9] = assay: Antifungal activity against Penicillium
Penicillium [10] = assay: Antifungal activity against Penicillium after 72 to 96 hrs by broth dilution method
Klebsiella pneumoniae [11] = assay: Antibacterial activity against Klebsiella pneumoniae
Klebsiella pneumoniae [12] = assay: Antibacterial activity against Klebsiella pneumoniae after 24 hrs by broth dilution method
Pseudomonas aeruginosa [13] = assay: Antibacterial activity against Pseudomonas aeruginosa
Escherichia coli [14] = assay: Antibacterial activity against Escherichia coli
Pseudomonas aeruginosa [15] = assay: Antibacterial activity against Pseudomonas aeruginosa after 24 hrs by broth dilution method
Escherichia coli [16] = assay: Antibacterial activity against Escherichia coli after 24 hrs by broth dilution method
Bacillus subtilis [17] = assay: Antibacterial activity against Bacillus subtilis
Bacillus subtilis [18] = assay: Antibacterial activity against Bacillus subtilis after 24 hrs by broth dilution method
Enterococcus faecalis [19] = assay: Antibacterial activity against Streptococcus faecalis
Enterococcus faecalis [20] = assay: Antibacterial activity against Streptococcus faecalis after 24 hrs by broth dilution method

Row | SMILES | inhibition zone (IZ) (Aspergillus flavus [1]) | MIC (Aspergillus flavus [2]) | inhibition zone (IZ) (Aspergillus niger [3]) | MIC (Fusarium [4]) | inhibition zone (IZ) (Fusarium [5]) | MIC (Aspergillus niger [6]) | MIC (Rhizopus [7]) | inhibition zone (IZ) (Rhizopus [8]) | inhibition zone (IZ) (Penicillium [9]) | MIC (Penicillium [10]) | inhibition zone (IZ) (Klebsiella pneumoniae [11]) | MIC (Klebsiella pneumoniae [12]) | inhibition zone (IZ) (Pseudomonas aeruginosa [13]) | inhibition zone (IZ) (Escherichia coli [14]) | MIC (Pseudomonas aeruginosa [15]) | MIC (Escherichia coli [16]) | inhibition zone (IZ) (Bacillus subtilis [17]) | MIC (Bacillus subtilis [18]) | inhibition zone (IZ) (Enterococcus faecalis [19]) | MIC (Enterococcus faecalis [20])
1 | COC(=O)O/N=C1\CC(c2ccccc2)N(C)C(c2ccccc2)C1C (stereo not given) | 12 mm | 100 µg/mL (≈ 284 µM) | inactive | 200 µg/mL (≈ 567 µM) | inactive | 200 µg/mL (≈ 567 µM) | 200 µg/mL (≈ 567 µM) | inactive | inactive | 200 µg/mL (≈ 567 µM) | inactive | 200 µg/mL (≈ 567 µM) | inactive | 12 mm | 200 µg/mL (≈ 567 µM) | 50 µg/mL (≈ 142 µM) | 12 mm | 50 µg/mL (≈ 142 µM) | inactive | 200 µg/mL (≈ 567 µM)
2 | CC(Cl)OC(=O)O/N=C1\CC(c2ccccc2)N(C)C(c2ccccc2)C1C (stereo not given) | 17 mm | 50 µg/mL (≈ 125 µM) | 17 mm | 25 µg/mL (≈ 62.4 µM) | 17 mm | 50 µg/mL (≈ 125 µM) | 25 µg/mL (≈ 62.4 µM) | 17 mm | 17 mm | 25 µg/mL (≈ 62.4 µM) | 22 mm | 12.5 µg/mL (≈ 31.2 µM) | 22 mm | 22 mm | 25 µg/mL (≈ 62.4 µM) | 12.5 µg/mL (≈ 31.2 µM) | 17 mm | 50 µg/mL (≈ 125 µM) | 22 mm | 12.5 µg/mL (≈ 31.2 µM)
3 | CCOC(=O)O/N=C1\CC(c2ccccc2)N(C)C(c2ccccc2)C1C(C)C (stereo not given) | 12 mm | 100 µg/mL (≈ 253 µM) | inactive | 200 µg/mL (≈ 507 µM) | inactive | 200 µg/mL (≈ 507 µM) | 200 µg/mL (≈ 507 µM) | inactive | inactive | 200 µg/mL (≈ 507 µM) | inactive | 200 µg/mL (≈ 507 µM) | inactive | 17 mm | 200 µg/mL (≈ 507 µM) | 12.5 µg/mL (≈ 31.7 µM) | 12 mm | 12.5 µg/mL (≈ 31.7 µM) | 12 mm | 50 µg/mL (≈ 127 µM)
4 | CC1/C(=N/OC(=O)Oc2ccccc2)CC(c2ccccc2)N(C)C1c1ccccc1 (stereo not given) | 12 mm | 50 µg/mL (≈ 121 µM) | 12 mm | 25 µg/mL (≈ 60.3 µM) | 12 mm | 100 µg/mL (≈ 241 µM) | 50 µg/mL (≈ 121 µM) | 12 mm | 12 mm | 50 µg/mL (≈ 121 µM) | 17 mm | 12.5 µg/mL (≈ 30.2 µM) | 12 mm | 17 mm | 25 µg/mL (≈ 60.3 µM) | 12.5 µg/mL (≈ 30.2 µM) | 12 mm | 25 µg/mL (≈ 60.3 µM) | 17 mm | 25 µg/mL (≈ 60.3 µM)
5 | CCC1/C(=N/OC(=O)Oc2ccccc2)CC(c2ccccc2)N(C)C1c1ccccc1 (stereo not given) | 17 mm | 50 µg/mL (≈ 117 µM) | 17 mm | 50 µg/mL (≈ 117 µM) | 17 mm | 50 µg/mL (≈ 117 µM) | 25 µg/mL (≈ 58.3 µM) | 17 mm | 17 mm | 25 µg/mL (≈ 58.3 µM) | 22 mm | 6.25 µg/mL (≈ 14.6 µM) | 17 mm | 12 mm | 12.5 µg/mL (≈ 29.2 µM) | 25 µg/mL (≈ 58.3 µM) | 17 mm | 25 µg/mL (≈ 58.3 µM) | 17 mm | 25 µg/mL (≈ 58.3 µM)
6 | COC(=O)O/N=C1\CC(c2ccccc2)N(C)C(c2ccccc2)C1C(C)C (stereo not given) | 12 mm | 100 µg/mL (≈ 263 µM) | inactive | 200 µg/mL (≈ 526 µM) | inactive | 200 µg/mL (≈ 526 µM) | 200 µg/mL (≈ 526 µM) | inactive | inactive | 200 µg/mL (≈ 526 µM) | inactive | 200 µg/mL (≈ 526 µM) | inactive | 17 mm | 200 µg/mL (≈ 526 µM) | 12.5 µg/mL (≈ 32.9 µM) | 12 mm | 12.5 µg/mL (≈ 32.9 µM) | 12 mm | 50 µg/mL (≈ 131 µM)
7 | C[C@@H]1[C@H](O)[C@@H](C)/C=C/C=C/C=C/C=C/C=C/C=C/C=C/[C@H](O[C@@H]2O[C@H](C)[C@@H](O)[C@H](N)[C@@H]2O)C[C@@H]2O[C@](O)(C[C@@H](O)C[C@@H](O)[C@H](O)CC[C@@H](O)C[C@@H](O)CC(=O)O[C@H]1C)C[C@H](O)[C@H]2C(=O)O [AMPHOTERICIN B] | 22 mm | 50 µg/mL (≈ 54.1 µM) | 21 mm | 25 µg/mL (≈ 27.1 µM) | 22 mm | 50 µg/mL (≈ 54.1 µM) | 25 µg/mL (≈ 27.1 µM) | 21 mm | 22 mm | 25 µg/mL (≈ 27.1 µM) |  |  |  |  |  |  |  |  |  | 
8 | CC(C)C1/C(=N/OC(=O)Oc2ccccc2)CC(c2ccccc2)N(C)C1c1ccccc1 (stereo not given) | 17 mm | 50 µg/mL (≈ 113 µM) | 12 mm | 25 µg/mL (≈ 56.5 µM) | 17 mm | 50 µg/mL (≈ 113 µM) | 25 µg/mL (≈ 56.5 µM) | 17 mm | 17 mm | 25 µg/mL (≈ 56.5 µM) | 22 mm | 6.25 µg/mL (≈ 14.1 µM) | 22 mm | 17 mm | 6.25 µg/mL (≈ 14.1 µM) | 25 µg/mL (≈ 56.5 µM) | 17 mm | 25 µg/mL (≈ 56.5 µM) | 17 mm | 25 µg/mL (≈ 56.5 µM)
9 | CCC1/C(=N/O)CC(c2ccccc2)N(C)C1c1ccccc1 (stereo not given) | inactive | 200 µg/mL (≈ 648 µM) | inactive | 200 µg/mL (≈ 648 µM) | inactive | 200 µg/mL (≈ 648 µM) | 100 µg/mL (≈ 324 µM) | 12 mm | inactive | 200 µg/mL (≈ 648 µM) | inactive | 200 µg/mL (≈ 648 µM) | inactive | 12 mm | 200 µg/mL (≈ 648 µM) | 50 µg/mL (≈ 162 µM) | 12 mm | 50 µg/mL (≈ 162 µM) | 12 mm | 200 µg/mL (≈ 648 µM)
10 | CN[C@@H]1[C@H](O[C@H]2[C@H](O[C@H]3[C@H](O)[C@@H](O)[C@H](N=C(N)N)[C@@H](O)[C@@H]3N=C(N)N)O[C@@H](C)[C@]2(O)C=O)O[C@@H](CO)[C@H](O)[C@H]1O [STREPTOMYCIN] |  |  |  |  |  |  |  |  |  |  | 26 mm | 25 µg/mL (≈ 43 µM) | 26 mm | 28 mm | 25 µg/mL (≈ 43 µM) | 12.5 µg/mL (≈ 21.5 µM) | 28 mm | 12.5 µg/mL (≈ 21.5 µM) | 22 mm | 50 µg/mL (≈ 86 µM)
11 | CCC1/C(=N/OC(=O)OC)CC(c2ccccc2)N(C)C1c1ccccc1 (stereo not given) | inactive | 200 µg/mL (≈ 546 µM) | inactive | 200 µg/mL (≈ 546 µM) | inactive | 200 µg/mL (≈ 546 µM) | 100 µg/mL (≈ 273 µM) | 12 mm | inactive | 200 µg/mL (≈ 546 µM) | inactive | 200 µg/mL (≈ 546 µM) | inactive | 12 mm | 200 µg/mL (≈ 546 µM) | 25 µg/mL (≈ 68.2 µM) | 12 mm | 25 µg/mL (≈ 68.2 µM) | 12 mm | 100 µg/mL (≈ 273 µM)
12 | CCOC(=O)O/N=C1\CC(c2ccccc2)N(C)C(c2ccccc2)C1C (stereo not given) | 12 mm | 100 µg/mL (≈ 273 µM) | inactive | 200 µg/mL (≈ 546 µM) | inactive | 200 µg/mL (≈ 546 µM) | 200 µg/mL (≈ 546 µM) | inactive | inactive | 200 µg/mL (≈ 546 µM) | inactive | 200 µg/mL (≈ 546 µM) | inactive | 12 mm | 200 µg/mL (≈ 546 µM) | 50 µg/mL (≈ 136 µM) | 12 mm | 50 µg/mL (≈ 136 µM) | inactive | 200 µg/mL (≈ 546 µM)
13 | CC(C)C1/C(=N/O)CC(c2ccccc2)N(C)C1c1ccccc1 (stereo not given) | inactive | 200 µg/mL (≈ 620 µM) | inactive | 200 µg/mL (≈ 620 µM) | inactive | 200 µg/mL (≈ 620 µM) | 50 µg/mL (≈ 155 µM) | 12 mm | 12 mm | 100 µg/mL (≈ 310 µM) | inactive | 200 µg/mL (≈ 620 µM) | 12 mm | 17 mm | 200 µg/mL (≈ 620 µM) | 50 µg/mL (≈ 155 µM) | 12 mm | 25 µg/mL (≈ 77.5 µM) | 12 mm | 50 µg/mL (≈ 155 µM)
14 | CC(Cl)OC(=O)O/N=C1\CC(c2ccccc2)N(C)C(c2ccccc2)C1C(C)C (stereo not given) | 22 mm | 25 µg/mL (≈ 58.3 µM) | 17 mm | 12.5 µg/mL (≈ 29.1 µM) | 32 mm | 25 µg/mL (≈ 58.3 µM) | 25 µg/mL (≈ 58.3 µM) | 22 mm | 32 mm | 12.5 µg/mL (≈ 29.1 µM) | 32 mm | 6.25 µg/mL (≈ 14.6 µM) | 32 mm | 22 mm | 6.25 µg/mL (≈ 14.6 µM) | 12.5 µg/mL (≈ 29.1 µM) | 32 mm | 6.25 µg/mL (≈ 14.6 µM) | 32 mm | 6.25 µg/mL (≈ 14.6 µM)
